Drawing on BindingDB's records for doi:10.1111/cbdd.12793 (Nanjing University, 2016), this text covers IC50 for 25 compounds.

The target in the assay is Tyrosine--tRNA ligase (Staphylococcus aureus (strain MSSA476), UniProt Q6G8J9). Kind of assay: In vitro Enzyme Inhibition Assay. Conditions: pH 7.9. The method, then: The assays were conducted at 37 °C in a mixture containing 100 mM Tris/Cl pH 7.9, 50 mM KCl, 16 mM MgCl2, 5 mM ATP, 3 mM DTT, 4 mg/ml E. coli MRE600 tRNA (Roche) and 10 μM L-tyrosine (0.3 μM L-[ring-3,5-3H] tyrosine (PerkinElmer, Specific activity: 1.48-2.22 TBq/mmol), 10 μM carrier). Above all, TyrRS (0.2 nM) was pre-incubated with kinds of concentrations inhibitor for 10 min (RT) followed by the addition of pre-warmed mixture and moved them together to 37 °C. After specific intervals, the reaction was ended by the addition of aliquots of the reaction mix into gelid 7% trichloroacetic acid and harvested onto […] hydrophilic Durapore filters (Millipore Multiscreen 96-well plates) and counted by liquid scintillation.
Tyrosine--tRNA ligase, sequence (Q6G8J9 whole entry): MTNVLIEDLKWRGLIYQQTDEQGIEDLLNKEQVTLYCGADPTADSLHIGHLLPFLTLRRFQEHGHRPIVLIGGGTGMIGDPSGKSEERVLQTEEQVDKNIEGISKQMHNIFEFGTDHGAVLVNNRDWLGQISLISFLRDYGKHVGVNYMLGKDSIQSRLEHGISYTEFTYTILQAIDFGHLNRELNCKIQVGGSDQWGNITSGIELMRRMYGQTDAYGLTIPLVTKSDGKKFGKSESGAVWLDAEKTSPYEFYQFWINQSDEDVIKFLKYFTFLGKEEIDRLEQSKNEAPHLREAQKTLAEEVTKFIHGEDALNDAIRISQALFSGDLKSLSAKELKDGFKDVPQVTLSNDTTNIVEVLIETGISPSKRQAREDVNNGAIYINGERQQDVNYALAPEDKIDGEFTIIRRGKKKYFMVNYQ

Broadly, the IC50 is the concentration needed to halve the response being measured. Consider `Cc1ncc([N+](=O)[O-])n1CCOC(=O)c1cc(-c2ccc(Cl)cc2)n(-c2ccccc2)n1` [2-(2-Methyl-5-nitro-1H-imidazol-1-yl)-ethyl-5-(4-chlorophenyl)-1-phenyl-1H-pyrazole-3-carboxylate (4i)], for which the IC50 came out at 21.2 µM.

In turn, `Cc1ncc([N+](=O)[O-])n1CCOC(=O)c1cc(-c2ccc(Cl)cc2)n(-c2ccc(Cl)cc2)n1` [2-(2-Methyl-5-nitro-1H-imidazol-1-yl)-ethyl-1,5-bis(4-chlorophenyl)-1H-pyrazole-3-carboxylate (4n)] returned an IC50 of 53.1 µM.

Turning to `Cc1ncc([N+](=O)[O-])n1CCOC(=O)c1cc(-c2ccc(F)cc2)n(-c2ccc(Cl)cc2)n1` [2-(2-Methyl-5-nitro-1H-imidazol-1-yl)-ethyl-1-(4-chlorophenyl)-5-(4-fluorophenyl)-1H-pyrazole-3-carboxylate (4m)], the IC50 was determined as 64.4 µM.

As to `Cc1ncc([N+](=O)[O-])n1CCOC(=O)c1cc(-c2ccc(F)cc2)n(-c2ccccc2)n1` [2-(2-Methyl-5-nitro-1H-imidazol-1-yl)-ethyl-5-(4-fluorophenyl)-1-phenyl-1H-pyrazole-3-carboxylate (4h)], 70 µM corresponded to half-maximal inhibition (IC50).

As for `Cc1ccc(-n2nc(C(=O)OCCn3c([N+](=O)[O-])cnc3C)cc2-c2ccc(F)cc2)cc1` [2-(2-Methyl-5-nitro-1H-imidazol-1-yl)-ethyl-5-(4-fluorophenyl)-1-(p-tolyl)-1H-pyrazole-3-carboxylate (4c)], the IC50 amounted to 56 µM.

`Cc1ncc([N+](=O)[O-])n1CCOC(=O)c1cc(-c2cccc(F)c2)n(-c2ccccc2)n1` [2-(2-Methyl-5-nitro-1H-imidazol-1-yl)-ethyl-5-(3-fluorophenyl)-1-phenyl-1H-pyrazole-3-carboxylate (4x)] came in with an IC50 of 84.1 µM.

`Cc1ncc([N+](=O)[O-])n1CCOC(=O)c1cc(-c2cccc(F)c2)n(-c2ccc(Cl)cc2)n1` [2-(2-Methyl-5-nitro-1H-imidazol-1-yl)-ethyl-1-(4-chlorophenyl)-5-(3-fluorophenyl)-1H-pyrazole-3-carboxylate (4y)]: the IC50 turned out to be 60.1 µM.

Take `Cc1ccc(-n2nc(C(=O)OCCn3c([N+](=O)[O-])cnc3C)cc2-c2ccc(I)cc2)cc1` [2-(2-Methyl-5-nitro-1H-imidazol-1-yl)-ethyl-5-(4-iodophenyl)-1-(p-tolyl)-1H-pyrazole-3-carboxylate (4e)]: the midpoint of inhibition, the IC50, lay at 40.5 µM.

Take `Cc1ccccc1-c1cc(C(=O)OCCn2c([N+](=O)[O-])cnc2C)nn1-c1ccccc1` [2-(2-Methyl-5-nitro-1H-imidazol-1-yl)-ethyl-1-phenyl-5-(o-tolyl)-1H-pyrazole-3-carboxylate (4p)]: the IC50 was found to be 4.55 µM.

In turn, `Cc1ccccc1-c1cc(C(=O)OCCn2c([N+](=O)[O-])cnc2C)nn1-c1ccc(Cl)cc1` [2-(2-Methyl-5-nitro-1H-imidazol-1-yl)-ethyl-1-(4-chlorophenyl)-5-(o-tolyl)-1H-pyrazole-3-carboxylate (4q)] came in with an IC50 of 5.11 µM.

`COc1ccc(-c2cc(C(=O)OCCn3c([N+](=O)[O-])cnc3C)nn2-c2ccc(C)cc2)cc1` [2-(2-Methyl-5-nitro-1H-imidazol-1-yl)-ethyl-5-(4-methoxyphenyl)-1-(p-tolyl)-1H-pyrazole-3-carboxylate (4a)] had an IC50 of 10.8 µM.

In the case of `Cc1ncc([N+](=O)[O-])n1CCOC(=O)c1cc(-c2ccccc2)n(-c2ccc(Cl)cc2)n1` [2-(2-Methyl-5-nitro-1H-imidazol-1-yl)-ethyl-1-(4-chlorophenyl)-5-phenyl-1H-pyrazole-3-carboxylate (4s)], the IC50 was 16.5 µM.

Compound `COc1ccc(-c2cc(C(=O)OCCn3c([N+](=O)[O-])cnc3C)nn2-c2ccccc2)cc1` [2-(2-Methyl-5-nitro-1H-imidazol-1-yl)-ethyl-5-(4-methoxyphenyl)-1-phenyl-1H-pyrazole-3-carboxylate (4f)] came in with an IC50 of 0.92 µM.

`Cc1ncc([N+](=O)[O-])n1CCOC(=O)c1cc(-c2ccc(I)cc2)n(-c2ccccc2)n1` [2-(2-Methyl-5-nitro-1H-imidazol-1-yl)-ethyl-5-(4-iodophenyl)-1-phenyl-1H-pyrazole-3-carboxylate (4j)]: inhibition was half-maximal at 36.7 µM (IC50).

`Cc1cccc(-c2cc(C(=O)OCCn3c([N+](=O)[O-])cnc3C)nn2-c2ccccc2)c1` [2-(2-Methyl-5-nitro-1H-imidazol-1-yl)-ethyl-1-phenyl-5-(m-tolyl)-1H-pyrazole-3-carboxylate (4v)]: the concentration for half-maximal inhibition (IC50) was found to be 21.6 µM.

Consider `Cc1ccc(-c2cc(C(=O)OCCn3c([N+](=O)[O-])cnc3C)nn2-c2ccc(C)cc2)cc1` [2-(2-Methyl-5-nitro-1H-imidazol-1-yl)-ethyl-1,5-di-p-tolyl-1H-pyrazole-3-carboxylate (4b)], for which it took 31.9 µM to reach half-maximal inhibition (IC50).

The compound `Cc1ncc([N+](=O)[O-])n1CCOC(=O)c1cc(-c2ccccc2F)n(-c2ccc(Cl)cc2)n1` [2-(2-Methyl-5-nitro-1H-imidazol-1-yl)-ethyl-1-(4-chlorophenyl)-5-(2-fluorophenyl)-1H-pyrazole-3-carboxylate (4u)] yielded an IC50 of 76.2 µM.

`Cc1ncc([N+](=O)[O-])n1CCOC(=O)c1cc(-c2ccccc2)n(-c2ccccc2)n1` [2-(2-Methyl-5-nitro-1H-imidazol-1-yl)-ethyl-1,5-diphenyl-1H-pyrazole-3-carboxylate (4r)] displayed a concentration for half-maximal inhibition (IC50) of 63.1 µM.

The compound `Cc1ncc([N+](=O)[O-])n1CCOC(=O)c1cc(-c2ccccc2F)n(-c2ccccc2)n1` [2-(2-Methyl-5-nitro-1H-imidazol-1-yl)-ethyl-5-(2-fluorophenyl)-1-phenyl-1H-pyrazole-3-carboxylate (4t)] came in with a half-inhibitory concentration (IC50) of 95.4 µM.

Compound `COc1ccc(-c2cc(C(=O)OCCn3c([N+](=O)[O-])cnc3C)nn2-c2ccc(Cl)cc2)cc1` [2-(2-Methyl-5-nitro-1H-imidazol-1-yl)-ethyl-1-(4-chlorophenyl)-5-(4-methoxyphenyl)-1H-pyrazole-3-carboxylate (4k)] gave an IC50 of 1.67 µM.

In turn, `Cc1cccc(-c2cc(C(=O)OCCn3c([N+](=O)[O-])cnc3C)nn2-c2ccc(Cl)cc2)c1` [2-(2-Methyl-5-nitro-1H-imidazol-1-yl)-ethyl-1-(4-chlorophenyl)-5-(m-tolyl)-1H-pyrazole-3-carboxylate (4w)] had an IC50 of 29.2 µM.

In the case of `Cc1ncc([N+](=O)[O-])n1CCOC(=O)c1cc(-c2ccc(I)cc2)n(-c2ccc(Cl)cc2)n1` [2-(2-Methyl-5-nitro-1H-imidazol-1-yl)-ethyl-1-(4-chlorophenyl)-5-(4-iodophenyl)-1H-pyrazole-3-carboxylate (4o)], the IC50 was determined as 13.3 µM.

In turn, `Cc1ccc(-c2cc(C(=O)OCCn3c([N+](=O)[O-])cnc3C)nn2-c2ccc(Cl)cc2)cc1` [2-(2-Methyl-5-nitro-1H-imidazol-1-yl)-ethyl-1-(4-chlorophenyl)-5-(p-tolyl)-1H-pyrazole-3-carboxylate (4l)] showed an IC50 of 18.1 µM.

`Cc1ccc(-n2nc(C(=O)OCCn3c([N+](=O)[O-])cnc3C)cc2-c2ccc(Cl)cc2)cc1` [2-(2-Methyl-5-nitro-1H-imidazol-1-yl)-ethyl-5-(4-chlorophenyl)-1-(p-tolyl)-1H-pyrazole-3-carboxylate (4d)] registered an IC50 of 47.8 µM.

`Cc1ccc(-c2cc(C(=O)OCCn3c([N+](=O)[O-])cnc3C)nn2-c2ccccc2)cc1` [2-(2-Methyl-5-nitro-1H-imidazol-1-yl)-ethyl-1-phenyl-5-(p-tolyl)-1H-pyrazole-3-carboxylate (4g)]: the IC50 is 60.8 µM.
